{
  "source": "patent US8097617B2",
  "about": "“Organic compounds” (Novartis AG, priority 2006, dated 2012)",
  "data": [
    {"molecular_target": "T1, human DPP-IV (Homo sapiens, UniProt P27487)", "T1 construct": "Human DPP-IV consisting of amino acids 39 to 766 followed by a C-terminal Streptavidin-tag; Streptavidin-tag (C); made in house", "T1 sequence (P27487 39-766)": "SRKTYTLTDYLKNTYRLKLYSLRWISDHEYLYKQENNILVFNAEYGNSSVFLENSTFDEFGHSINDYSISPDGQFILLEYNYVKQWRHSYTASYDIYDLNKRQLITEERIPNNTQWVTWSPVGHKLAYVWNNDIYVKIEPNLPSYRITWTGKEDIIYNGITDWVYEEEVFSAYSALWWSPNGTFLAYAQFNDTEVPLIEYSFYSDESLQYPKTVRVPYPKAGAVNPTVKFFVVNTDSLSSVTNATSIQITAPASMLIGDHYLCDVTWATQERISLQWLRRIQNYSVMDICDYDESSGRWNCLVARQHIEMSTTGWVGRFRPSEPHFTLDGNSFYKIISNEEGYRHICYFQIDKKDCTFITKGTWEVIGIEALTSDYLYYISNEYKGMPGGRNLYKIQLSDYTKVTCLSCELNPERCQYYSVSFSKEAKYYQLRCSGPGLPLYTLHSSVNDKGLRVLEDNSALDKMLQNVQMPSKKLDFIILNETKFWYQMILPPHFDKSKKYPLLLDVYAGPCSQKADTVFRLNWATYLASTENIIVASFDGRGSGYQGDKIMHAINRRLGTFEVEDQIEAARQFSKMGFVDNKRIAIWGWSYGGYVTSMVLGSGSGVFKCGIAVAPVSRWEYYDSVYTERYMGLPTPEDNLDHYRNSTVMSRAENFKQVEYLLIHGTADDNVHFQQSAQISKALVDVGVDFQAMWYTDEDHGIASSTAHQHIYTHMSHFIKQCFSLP", "experiment": "DPP-IV inhibitory activity assay, fluorogenic substrate H-Gly-Pro-AMC", "assay_type": "biochemical", "details": "recombinant human DPP-IV (aa 39-766), substrate H-Gly-Pro-AMC 10 μM, room temperature, 1 hour; read-out: IC50 (inhibitory activity to human DPP-4)", "protocol": "Some of Compounds 1 to 40 were tested for their inhibitory activity to human DPP-IV.\nHuman DPP-IV consisting of amino acids 39 to 766 followed by a C-terminal Streptavidin-tag was expressed using the baculovirus system and purified to >80% purity. The enzyme was stored in 25 mM Tris buffer, pH 9.0, containing 300 mM NaCl at −80° C.\nThe fluorogenic substrates H-Gly-Pro-AMC was purchased from Bachem AG (Bubendorf, Switzerland). The substrate was kept as a 5 mM stock solution in DMSO at −20° C. All other chemicals were purchased from Sigma (Buchs, Switzerland).\nThe assay buffer for the DPP-IV reaction was 25 mM Tris/HCl, pH 7.5, containing 140 mM NaCl, 10 mM KCl and 0.05% (w/v) CHAPS.\nThe test compounds were dissolved in 90% DMSO/10% H2O (v/v). Serial dilutions of the compounds from 3 mM to 0.03 μM in 90% DMSO/10% H2O (v/v) followed by a 1:33.3 dilution in assay buffer was done in 96-well polypropylene plates using a CyBio Dilus 8-channel pipettor (CyBio AG, Jena, Germany) with tip change after each pipetting step. The compound solutions as well as the substrate and the enzyme solutions were transferred to the assay plates (384-well black Cliniplate; cat. no. 95040020 Labsystems Oy, Finland) by means of a CyBi-Well 96-channel pipettor (CyBio AG, Jena, Germany).\nEnzyme kinetics were measured by mixing 10 μl of a 3-fold concentrated substrate solution in assay buffer (final substrate concentration was 10 μM) with 10 μl of the corresponding compound solution. The reactions were initiated by addition of 10 μl of a 3-fold concentrated solution of the enzyme in assay buffer. Final enzyme (active site) concentrations in the assay was […] for DPP-IV. Fluorescence product (AMC) formation was monitored for 1 hour at room temperature at 35 second intervals by measuring the fluorescence emission at 500 nm using an exitation wavelength of 350 nm in a TECAN Ultra fluorescence reader (TECAN, Maennedorf, Switzerland). The fluorescence in each well was excited by one flash per measurement. The Origin software package (Origin 7.5 Mircocal, Northampton, Mass., USA) was used to generate all graphs and to perform the IC50 calculations.", "units": {"IC50": "nM"}, "values": [
      {"smiles": "COCCN(C)c1cnc2cc(CN)c(-c3ccc(Cl)cc3Cl)cn12", "note": "[Compound 7, [7-Aminomethyl-6-(2,4-dichloro-phenyl)-imidazo[1,2-a]pyridin-3-yl]-(2-methoxy-ethyl)-methyl-amine]", "IC50": 23},
      {"smiles": "CN1CCC(C(=O)Nc2nnc3cc(CN)c(-c4ccc(Cl)cc4Cl)cn23)CC1", "note": "[Compound 18b, 1-Methyl-piperidine-4-carboxylic acid [7-aminomethyl-6-(2,4-dichloro-phenyl)-[1,2,4]triazolo[4,3-a]pyridin-3-yl]-amide]", "IC50": 25},
      {"smiles": "NCc1cc2ncc(-c3ccc(F)c(F)c3)n2cc1-c1ccc(Cl)cc1Cl", "note": "[Compound 4d, C-[6-(2,4-Dichloro-phenyl)-3-(3,4-difluoro-phenyl)-imidazo[1,2-a]pyridin-7-yl]-methylamine]", "IC50": 23},
      {"smiles": "NCc1cc2ncc(C(=O)N3CCOCC3)n2cc1-c1ccc(Cl)cc1Cl", "note": "[Compound 27a, [7-Aminomethyl-6-(2,4-dichloro-phenyl)-imidazo[1,2-a]pyridin-3-yl]-morpholin-4-yl-methanone]", "IC50": 22}
    ]}
  ]
}
